Test results taken from US6362369B1, “Phthalic acid diamide derivatives fluorine-containing aniline compounds as starting material, agricultural and horticultural insecticides, and a method for application of the insecticides” (Nihon Nohyaku Co., Ltd., priority 1997, dated 2002).

Key:
Type in all cases: in vivo
[1] = tested on: diamondback moth (Plutella xylostella); test: Insecticidal effect on diamondback moth (Test Example 1); details: for Insecticidal effect, Test Example 1 / Insecticidal effect (Test Example 1), judged from mortality: diamondback moth; for Insecticidal effect on diamondback moth (Test Example 1), judged grade: mortality judged according to the criterion shown in Test Example 1; for Insecticidal effect (Test Example 1), judged from mortality: judged by the criterion of Test Example 1
Outline: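 Triplicate groups of 10 insects: eggs laid on Chinese cabbage seedling by adults, seedling immersed then air-dried, kept at 25° C. Day-6 hatch counts gave mortality, rated by criterion.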

[2] = tested on: common cutworm (Spodoptera Litura); test: Insecticidal effect on common cutworm (Test Example 2); details: 500 ppm, 25° C.; for Insecticidal effect, Test Example 2: cabbage leaf immersed; for Insecticidal effect, Test Example 2 / Insecticidal effect on common cutworm (Test Example 2), judged grade: eight days after inoculation; for Insecticidal effect on common cutworm (Test Example 2), judged grade / Insecticidal effect (Test Example 2), judged from mortality: cabbage leaf dip; for Insecticidal effect on common cutworm (Test Example 2), judged grade: second-instar larvae; for Insecticidal effect (Test Example 2), judged from mortality: 8 days after inoculation
Outline: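 Insecticidal effect was rated from percent mortality of second-instar larvae exposed to air-dried treatment at 25° C for 8 days.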

[3] = tested on: rice leafroller (Cnaphalocrocis medinalis); test: Insecticidal effect on rice leafroller (Test Example 3); details: 500 ppm, 25° C., humidity 70%; for Insecticidal effect, Test Example 3: rice lamina immersed; for Insecticidal effect, Test Example 3 / Insecticidal effect on rice leafroller (Test Example 3), judged grade: four days after inoculation; for Insecticidal effect on rice leafroller (Test Example 3), judged grade / Insecticidal effect (Test Example 3), judged from mortality: rice lamina dip; for Insecticidal effect on rice leafroller (Test Example 3), judged grade: third-instar larvae; for Insecticidal effect (Test Example 3), judged from mortality: 4 days after inoculation
Outline: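 Insecticidal effect is judged by a predefined criterion from dead/alive counts four days after infesting air-dried lamina with third-instar larvae, kept on moistened filter paper at 25° C, 70% humidity.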

[4] = judged by the mortality criterion of Test Example 1
[5] = second-instar larvae of common cutworm
[6] = third-instar larvae of rice leafroller
[7] = mortality judged by criterion of Test Example 1
[8] = common cutworm second-instar larvae
[9] = rice leafroller third-instar larvae

Question: With `CC(C)NC(=O)c1c(Cl)cccc1C(=O)Nc1ccc(C(F)(F)C(F)(F)C(F)(F)C(F)(F)F)cc1` [compound 91] as the compound, how does the “Insecticidal effect, Test Example 1” value [1, 4] read?
Answer: A (100)

Question: What about the “Insecticidal effect, Test Example 2” value [2, 5] of the same compound?
Answer: A (100)

Question: What about the “Insecticidal effect, Test Example 3” value [3, 6] of the same compound?
Answer: A (100)

Question: Which results are given for `Cc1c(Br)ccc(NC(=O)c2cccc(Br)c2C(=O)NC(C)C)c1C` [compound 273]?
Answer: Insecticidal effect, Test Example 1 [1, 4]: A (100); Insecticidal effect, Test Example 2 [2, 5]: D (79-50); Insecticidal effect, Test Example 3 [3, 6]: D (79-50)

Question: With `CCc1cc(Cl)ccc1NC(=O)c1cccc([N+](=O)[O-])c1C(=O)NC(C)C` [compound 667] as the compound, how does the “Insecticidal effect on diamondback moth (Test Example 1), judged grade” value [1] read?
Answer: A (100)

Question: And the “Insecticidal effect on common cutworm (Test Example 2), judged grade” value [2]?
Answer: A (100)

Question: What about the “Insecticidal effect on rice leafroller (Test Example 3), judged grade” value [3] of the same compound?
Answer: A (100)

Question: Which results are given for `CCN(CC)C(=O)c1c(I)cccc1C(=O)Nc1ccc2c(c1)OC(F)(F)C(F)O2` (stereo not drawn) [compound 1167]?
Answer: Insecticidal effect, Test Example 1 [1, 7]: A (100); Insecticidal effect, Test Example 2 [2, 8]: A (100); Insecticidal effect, Test Example 3 [3, 9]: A (100)

Question: With `Cc1ccc(NC(=O)c2cccc(Br)c2C(=O)NC(C)C)c(C)c1Cl` [compound 270] as the compound, how does the “Insecticidal effect, Test Example 1” value [1, 4] read?
Answer: A (100)

Question: What about the “Insecticidal effect, Test Example 2” value [2, 5] of the same compound?
Answer: A (100)

Question: And the “Insecticidal effect, Test Example 3” value [3, 6]?
Answer: A (100)

Question: How did the “Insecticidal effect on diamondback moth (Test Example 1), judged grade” value [1] turn out when `CC(C)(C)NC(=O)c1c(Cl)cccc1C(=O)Nc1ccc(OC(F)(F)F)cc1` [compound 936] was run?
Answer: A (100)

Question: And the “Insecticidal effect on common cutworm (Test Example 2), judged grade” value [2]?
Answer: A (100)

Question: And the “Insecticidal effect on rice leafroller (Test Example 3), judged grade” value [3]?
Answer: A (100)

Question: How did the “Insecticidal effect, Test Example 1” value [1, 4] turn out when `CC(C)NC(=O)c1c(Cl)cccc1C(=O)Nc1ccc(F)cc1Cl` [compound 114] was run?
Answer: A (100)

Question: And the “Insecticidal effect, Test Example 2” value [2, 5]?
Answer: A (100)

Question: And the “Insecticidal effect, Test Example 3” value [3, 6]?
Answer: A (100)

Question: `CCN(CC)C(=O)c1c(Cl)cccc1C(=O)Nc1ccc(OC(F)(F)F)cc1` [compound 1544] was tested. Which “Insecticidal effect (Test Example 1), judged from mortality” value [1] did it give?
Answer: A (100)

Question: And the “Insecticidal effect (Test Example 2), judged from mortality” value [2, 5]?
Answer: A (100)

Question: And the “Insecticidal effect (Test Example 3), judged from mortality” value [3, 6]?
Answer: A (100)

Question: For `Cc1cc(C(F)(F)C(F)(F)Br)ccc1NC(=O)c1ccccc1C(=O)NC(C)C` [compound 63], which “Insecticidal effect, Test Example 1” value [1, 4] is on record?
Answer: A (100)

Question: What about the “Insecticidal effect, Test Example 2” value [2, 5] of the same compound?
Answer: B (99-90)

Question: What about the “Insecticidal effect, Test Example 3” value [3, 6] of the same compound?
Answer: A (100)

Question: What does the source list for `CCNC(=O)c1c(I)cccc1C(=O)Nc1ccc(C(F)(C(F)(F)F)C(F)(F)F)cc1C` [compound 1073]?
Answer: Insecticidal effect, Test Example 1 [1, 7]: A (100); Insecticidal effect, Test Example 2 [2, 8]: A (100); Insecticidal effect, Test Example 3 [3, 9]: A (100)

Question: With `Cc1cc(C(F)(F)C(F)(F)F)ccc1NC(=O)c1cccc(C(F)(F)F)c1C(=O)NC(C)C` [compound 1801] as the compound, how does the “Insecticidal effect (Test Example 1), judged from mortality” value [1] read?
Answer: A (100)

Question: And the “Insecticidal effect (Test Example 2), judged from mortality” value [2, 5]?
Answer: A (100)

Question: What about the “Insecticidal effect (Test Example 3), judged from mortality” value [3, 6] of the same compound?
Answer: A (100)

Question: What does the source list for `CC(C)NC(=O)c1c(I)cccc1C(=O)Nc1ccc2nc(C(C)C)sc2c1` [compound 1764]?
Answer: Insecticidal effect (Test Example 1), judged from mortality [1]: A (100); Insecticidal effect (Test Example 2), judged from mortality [2, 5]: A (100); Insecticidal effect (Test Example 3), judged from mortality [3, 6]: A (100)

Question: `Cc1cc(C(F)(F)F)ccc1NC(=O)c1c(I)cccc1C(=O)NC(C)C` [compound 436] was tested. Which “Insecticidal effect, Test Example 1” value [1, 4] did it give?
Answer: A (100)

Question: And the “Insecticidal effect, Test Example 2” value [2, 5]?
Answer: B (99-90)

Question: And the “Insecticidal effect, Test Example 3” value [3, 6]?
Answer: A (100)

Question: Which results are given for `CC(C)(C)NC(=O)c1c(I)cccc1C(=O)Nc1ccc2c(c1)OC(F)C(F)(F)O2` (stereo not drawn) [compound 1150]?
Answer: Insecticidal effect, Test Example 1 [1, 7]: A (100); Insecticidal effect, Test Example 2 [2, 8]: A (100); Insecticidal effect, Test Example 3 [3, 9]: A (100)

Question: `CC(C)NC(=O)c1cccc(Br)c1C(=O)Nc1ccc(OC(F)(F)F)cc1Cl` [compound 323] was tested. Which “Insecticidal effect, Test Example 1” value [1, 4] did it give?
Answer: A (100)

Question: What about the “Insecticidal effect, Test Example 2” value [2, 5] of the same compound?
Answer: C (89-80)

Question: What about the “Insecticidal effect, Test Example 3” value [3, 6] of the same compound?
Answer: A (100)

Question: For `COCCNC(=O)c1c(I)cccc1C(=O)Nc1ccc(C(F)(F)C(F)(F)F)cc1C` [compound 981], which “Insecticidal effect, Test Example 1” value [1, 7] is on record?
Answer: A (100)

Question: What about the “Insecticidal effect, Test Example 2” value [2, 8] of the same compound?
Answer: A (100)

Question: What about the “Insecticidal effect, Test Example 3” value [3, 9] of the same compound?
Answer: A (100)

Question: What does the source list for `CC(C)NC(=O)c1c(Cl)cccc1C(=O)Nc1ccc(OC(F)(F)F)cc1Br` [compound 136]?
Answer: Insecticidal effect, Test Example 1 [1, 4]: A (100); Insecticidal effect, Test Example 2 [2, 5]: A (100); Insecticidal effect, Test Example 3 [3, 6]: A (100)

Question: Which “Insecticidal effect, Test Example 1” value [1, 4] does the source give for `Cc1cc(Oc2c(F)c(F)c(F)c(F)c2F)ccc1NC(=O)c1cccc(I)c1C(=O)NC(C)C` [compound 397] here?
Answer: A (100)

Question: What about the “Insecticidal effect, Test Example 2” value [2, 5] of the same compound?
Answer: A (100)

Question: And the “Insecticidal effect, Test Example 3” value [3, 6]?
Answer: A (100)

Question: How did the “Insecticidal effect, Test Example 1” value [1, 7] turn out when `CC(C)(C)NC(=O)c1c(I)cccc1C(=O)Nc1ccc(C(F)(F)F)cc1` [compound 939] was run?
Answer: A (100)

Question: And the “Insecticidal effect, Test Example 2” value [2, 8]?
Answer: A (100)

Question: What about the “Insecticidal effect, Test Example 3” value [3, 9] of the same compound?
Answer: A (100)
